Laboratory results from patent publication US8629093B2, “Detergent composition comprising mixture of chelants” (The Procter & Gamble Company, priority 2010, dated 2014).

Experiments:
[1] = Stain removal on wine stains (MiniWasher, image analysis); conditions: wash 32.2° C., 6 gpg hardness, 12 minutes
Description: (§1) The performance of the chelants were measured on wine and tea. Wine and tea stains were applied to cotton and obtained from EMC (US). Stains and ballast load consisting of 0.5 kg of T-shirt was added to a MiniWasher representing a medium US wash conditions. The wash water was set at 32.2° C.±1° C. and 6 gpg (1 mmol/L) hardness and the rinse water was set at 15.5° C.±1° C. The water volume was 15 liters and wash time 12 minutes.
(§2) The stains and the ballast were dried at the end of each cycle under high speed and high heat with cool down cycle. The results were then analyzed by image analysis which is a method that enables to calculate the amount of stain that is removed. Stains are imaged before washing and after washing. The imaging calculates the amount of stain removal index (SRI). SRI of 100 means complete removal and SRI of zero is no removal.
(§3) The Laundry Image Analysis system (Merlin image analysis system) measures stain removal on technical stain swatches. The system utilizes a video camera to acquire color images of swatches. An image of the swatch is taken before and after it is washed. The acquired image is then analyzed by computer software (Global R&D computing). The software compares the unwashed stain to the washed stain, as well as the unwashed fabric to the washed fabric and produces five figures of merit which describe stain removal. The data are then analyzed statistically to determine statistically significant differences between the detergent performances.
(§4) The stain removal index uses the initial fabric as the reference against which to measure color differences between unwashed and washed stains. A higher value indicates a better cleaning and stain removal thus a better detergent. The standard deviation is 1.

[2] = Stain removal on tea stains (MiniWasher, image analysis); conditions: wash 32.2° C., 6 gpg hardness, 12 minutes
Description: as §1, §2, §3, §4

[3] = Product stability on storage, assessed visually; assay type: physicochemical
Description: Products (I through III) were prepared by combining Composition C and the 3 different chelant combinations. The products (75 g) were stored for 4 weeks at 4° C., 20° C. and 35° C. in a Glass Jar (100 mL contenance). The product stability was then assessed visually. If there is a visual precipitate or a product phase split, the stability is considered Fail. Stability is considered Pass if there is no signs of changes during the storage period.

[4] = Cleaning efficacy of compact liquid detergent composition; conditions: composition comprising 0.7% of Na-DTPA
[5] = chelant 1 ppm, SRI 100 = complete removal, standard deviation 1

**Q.** Which results are given for O=C([O-])CN(CCN(CC(=O)[O-])CC(=O)[O-])CCN(CC(=O)[O-])CC(=O)[O-].[Na+].[Na+].[Na+].[Na+].[Na+] [Na-DTPA, sodium salt of diethylene triamine pentaacetate]?
**A.** Stain Removal Index Wine [1, 5]: 55.2; Stain Removal Index Wine ([1]; chelant 2 ppm): 55.8; Stain Removal Index Wine ([1]; chelant 3 ppm): 56.4; Stain Removal Index Tea [2, 5]: 27.6; Stain Removal Index Tea ([2]; chelant 2 ppm): 29.0; Stain Removal Index Tea ([2]; chelant 3 ppm): 27.1; Stability of compact liquid detergent composition ([3]; composition comprising 0.7% of Na-DTPA): stable; Stability of compact liquid detergent composition ([3]; quantity of Na-DTPA increased to the effective level): does not meet the stability requirements; Cleaning efficacy [4]: does not provide desired cleaning efficacy

**Q.** Which “Stain Removal Index Wine” value [1, 5] does the source give for O=C([O-])CC(NCCNC(CC(=O)O)C(=O)[O-])C(=O)[O-].[Na+].[Na+].[Na+] (stereo not drawn) [Na-EDDS, sodium salt of Ethylenediamine-N,N′-disuccinic acid] here?
**A.** 58.3

**Q.** What about the “Stain Removal Index Wine” value ([1]; chelant 2 ppm) of the same compound?
**A.** 59.0

**Q.** And the “Stain Removal Index Wine” value ([1]; chelant 3 ppm)?
**A.** 56.8

**Q.** What about the “Stain Removal Index Tea” value [2, 5] of the same compound?
**A.** 28.2

**Q.** What about the “Stain Removal Index Tea” value ([2]; chelant 2 ppm) of the same compound?
**A.** 29.3

**Q.** What about the “Stain Removal Index Tea” value ([2]; chelant 3 ppm) of the same compound?
**A.** 26.1
